Assay results from EP2179732A1, “PHARMACEUTICAL COMPOSITION COMBINING AN ENZYME HMG-COA REDUCTASE INHIBITING AGENT AND A GASTROINTESTINAL LIPASE ENZYME INHIBITING AGENT” (Espinosa Abdala, Leopoldo de Jesús, priority 2007, dated 2008).
Marks after values point to notes of the source that are not given here.

Key:
[1] = test system: obese patients with hypercholesterolemia and hypertriglyceridemia; test: Clinical comparative study of Orlistat, Atorvastatin and combination: lipid profile; type: in vivo; conditions: for C-HDL Baseline change at 1 year / C-LDL Baseline change at 1 year / CT Baseline change at 1 year / TG Baseline change at 1 year: 1 Year versus baseline; for C-HDL / C-LDL / CT (Total Cholesterol) / TG (Triglycerides): average (SD)
Method: (§1) Methods. Selected patients were obese with a Body Mass Index (IMC) >30 Kg/m^2; with border (Total cholesterol 200-240 mg./dL.) or severe (Total cholesterol ≥ 240 mg./dL.) hypercholesterolemia; with hypertriglyceridemia (≥ 150 mg./dL.); normal pressure patients (systolic pressure <140 mm Hg and diastolic pressure < 90 mm Hg).
(§2) Patients were >50 years old. Patients were randomized for receiving in Group 1: Orlistat 1 capsule (120 mg.) in main meal.
(§3) Compliance with treatment was assessed by counting capsules and with follow-up visits every 3 months. Total cholesterol, LDL cholesterol, HDL Cholesterol, Triglycerides in serum and blood pressure during baseline visit were assessed, and at 6 months and 12 months of treatment. Waist index was assessed.

[2] = test system: obese patients with hypercholesterolemia and hypertriglyceridemia; test: Clinical comparative study: body weight (body mass index, waist circumference reduction, weight loss); type: in vivo
Method: as §1, §2, §3

[3] = test system: obese patients with hypercholesterolemia and hypertriglyceridemia; test: Clinical comparative study: blood pressure; type: in vivo
Method: as §1, §2, §3

[4] = test system: obese patients with hypercholesterolemia and hypertriglyceridemia; conditions: human, in vivo
Method: as §1, §2, §3

plasma proteins = conditions: in vitro; lipoproteins and albumin main attachment proteins; cited from earlier work
[5] = dosage of 120 mg once a day; cited from earlier work
[6] = cited from earlier work
[7] = dose-response study; cited from earlier work

Structure (SMILES) | C-HDL Baseline change at 1 year [1] | C-LDL Baseline change at 1 year [1] | CT Baseline change at 1 year [1] | TG Baseline change at 1 year [1] | C-HDL ([1]; 1 year of treatment) | C-LDL ([1]; 1 year of treatment) | CT (Total Cholesterol) ([1]; 1 year of treatment) | TG (Triglycerides) ([1]; 1 year of treatment) | C-HDL ([1]; 6 months of treatment) | C-LDL ([1]; 6 months of treatment) | CT (Total Cholesterol) ([1]; 6 months of treatment) | TG (Triglycerides) ([1]; 6 months of treatment) | IMC Baseline changes ([2]; 1 Year versus baseline) | PP Baseline changes ([2]; 1 Year versus baseline) | RCC Baseline changes ([2]; 1 Year versus baseline) | PP (Weight loss) ([2]; 1 year) | RCC (Waist circumference reduction) ([2]; 1 year) | PP (Weight loss) ([2]; 6 Months) | RCC (Waist circumference reduction) ([2]; 6 Months) | IMC Baseline changes ([2]; 6 Months versus baseline) | also measured
CCCCCCCCCCC[C@@H](C[C@@H]1OC(=O)[C@H]1CCCCCC)OC(=O)[C@H](CC(C)C)NC=O [Orlistat] | 4.8% | -17.0* % | -13.0* % | -30-3** % | 45 (6) mg./dL. | 152 (23) mg./dL. | 211 (25) mg./dL. | 100 (22) mg./dL. | 44 (5) mg./dL. | 163 (21) mg./dL. | 232 (22) mg./dL. | 120 (24) mg./dL. | -6.2** % | -4.6** % | -4.6* % | -6.6 (1.5) | -4.1 (1.1) cm. | -4.0 (1.2) | -2.1 (0.7) cm. | -3.2* % | IMC (Body Mass Index) ([2]; 1 year): 27.3 (1.3) Kg./M^2; IMC (Body Mass Index) ([2]; 6 Months): 30.3 (1.4) Kg./M^2; PP Baseline changes ([2]; 6 Months versus baseline): -4.* %; RCC Baseline changes ([2]; 6 Months versus baseline): -2.1* %; Diastolic Baseline changes ([3]; 1 Year versus baseline): -8.0* %; Systolic Baseline changes ([3]; 1 Year versus baseline): -16.0* %; Diastolic blood pressure [PAD] ([3]; 1 year): 82 (3) mm. Hg; Systolic blood pressure [PAS] ([3]; 1 year): 128 (3) mm. Hg; Diastolic blood pressure [PAD] ([3]; 6 Months): 82 (3) mm. Hg; Systolic blood pressure [PAS] ([3]; 6 Months): 130 (3) mm. Hg; Diastolic Baseline changes ([3]; 6 Months versus baseline): -8.0%; Systolic Baseline changes ([3]; 6 Months versus baseline): -6.0%; adverse events [4]: Two patients from Group 1 showed adverse gastrointestinal events (fecal urgency); attached to plasma proteins (plasma proteins): > 99%; maximum inhibition of fatty absorption [5]: 30%; intact Orlistat concentrations ([6]; at 8 hours after oral administration, not detectable): < 5 ng/mL; two main metabolites M1 and M3 as share of total plasma concentration ([6]; of the minimal systemically absorbed fraction of the dose): about 42%
CC(C)c1c(C(=O)Nc2ccccc2)c(-c2ccccc2)c(-c2ccc(F)cc2)n1CC[C@@H](O)C[C@@H](O)CC(=O)O [Atorvastatin] | 12.3** % | -33.0** % | -27.0** % | -25.0* % | 46 (5) mg./dL. | 104 (23) mg./dL. | 184 (23) mg./dL. | 125 (28) mg./dL. | 44 (5) mg./dL. | 151 (22)* mg./dL. | 191 (21)* mg./dL. | 126 (29) mg./dL. | -4.1* % | -4.6* % | -3.7* % | -7.3 (1.2) | -3.1 (1.1) cm. | -3.7 (1.1) | -1.5 (0.7) cm. | -2.3% | PP Baseline changes ([2]; 6 Months versus baseline): -3.7%; RCC Baseline changes ([2]; 6 Months versus baseline): -1.5%; Diastolic Baseline changes ([3]; 1 Year versus baseline): -7.0* %; Systolic Baseline changes ([3]; 1 Year versus baseline): -6.0* %; Diastolic blood pressure [PAD] ([3]; 1 year): 83 (3) mm. Hg; Systolic blood pressure [PAS] ([3]; 1 year): 127 (4) mm. Hg; Diastolic blood pressure [PAD] ([3]; 6 Months): 85 (4) mm. Hg; Systolic blood pressure [PAS] ([3]; 6 Months): 130 (4) mm. Hg; Diastolic Baseline changes ([3]; 6 Months versus baseline): -5.0%; Systolic Baseline changes ([3]; 6 Months versus baseline): -3.0%; alterations as to serum transaminases or in creatinphosphokinase activity [4]: did not show alterations; reduce LDL cholesterol [7]: 41-61%; reduce apolipoprotein B [7]: 34-50%; reduce total cholesterol [7]: 30-46%; reduce triglycerides [7]: 14-33%
